Assay results published in ChEMBL document CHEMBL1136658, “Design and synthesis of potent, non-peptide inhibitors of HCV NS3 protease” (Bioorg Med Chem Lett, 2003).
Peptide text beside a SMILES is read from it. * marks the point of attachment. X1 = C=CC[C@H](N*)B1OC2CC3CC(C3(C)C)[C@@]2(C)O1

What was measured:
NS3 [1] = molecular target: T1, NS3 (Hepatitis C virus, UniProt A3EZJ3); test: Inhibitory concentration against HCV NS3 protease.; set-up: species or system Hepacivirus hominis
NS3 [2] = molecular target: T1, NS3; test: Inhibitory concentration against HCV NS3 protease was determined; set-up: species or system Hepacivirus hominis

T1 sequence (A3EZJ3 whole entry): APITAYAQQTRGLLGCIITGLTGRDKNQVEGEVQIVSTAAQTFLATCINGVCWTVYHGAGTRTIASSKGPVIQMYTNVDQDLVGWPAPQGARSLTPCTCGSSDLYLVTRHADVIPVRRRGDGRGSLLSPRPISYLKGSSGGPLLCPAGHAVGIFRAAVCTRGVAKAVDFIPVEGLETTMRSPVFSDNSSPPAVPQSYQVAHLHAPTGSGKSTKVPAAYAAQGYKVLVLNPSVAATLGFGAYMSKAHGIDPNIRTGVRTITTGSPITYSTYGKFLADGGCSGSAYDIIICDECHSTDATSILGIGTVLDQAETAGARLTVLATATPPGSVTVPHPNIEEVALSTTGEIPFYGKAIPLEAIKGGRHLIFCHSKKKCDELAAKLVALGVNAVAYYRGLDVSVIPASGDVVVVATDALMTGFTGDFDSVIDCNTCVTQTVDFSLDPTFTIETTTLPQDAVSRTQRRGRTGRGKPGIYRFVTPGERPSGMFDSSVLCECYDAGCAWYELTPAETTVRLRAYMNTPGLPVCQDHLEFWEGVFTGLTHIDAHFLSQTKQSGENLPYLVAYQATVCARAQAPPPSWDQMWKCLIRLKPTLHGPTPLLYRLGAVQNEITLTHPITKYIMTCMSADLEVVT

| Compound | IC50 (NS3 [1]) [nM] | Ki (NS3 [2]) [nM] |
| --- | --- | --- |
| C=CC[C@H](NC(=O)[C@@H]1CCc2c(Cl)nc(NCc3cccc(C(F)(F)F)c3)c(=O)n21)B1OC2CC3CC(C3(C)C)[C@@]2(C)O1 (stereo not given in full) | 4600 |  |
| C=CC[C@H](NC(=O)[C@@H]1C[C@@H](Cc2ccc(-c3ccccc3)cc2)c2c(Cl)nc(NCc3cccc(C(F)(F)F)c3)c(=O)n21)B1OC2CC3CC(C3(C)C)[C@@]2(C)O1 (stereo not given in full) | 60 |  |
| C=CC[C@H](NC(=O)[C@@H]1C[C@@H](Cc2ccc(OC)cc2)c2c(Cl)nc(NCc3cccc(C(F)(F)F)c3)c(=O)n21)B1OC2CC3CC(C3(C)C)[C@@]2(C)O1 (stereo not given in full) | 50 |  |
| C=CC[C@H](NC(=O)[C@@H]1C[C@@H](CCCc2cccc3ccccc23)c2c(Cl)nc(NCc3ccc(O)c(O)c3)c(=O)n21)B1OC2CC3CC(C3(C)C)[C@@]2(C)O1 (stereo not given in full) | 110 |  |
| C=CC[C@H](NC(=O)[C@@H]1C[C@@H](CCCc2ccc3ccccc3c2)c2c(Cl)nc(NCC3CCCCC3)c(=O)n21)B1OC2CC3CC(C3(C)C)[C@@]2(C)O1 (stereo not given in full) | 200 |  |
| C=CC[C@H](NC(=O)[C@@H]1C[C@H](CCCc2ccccc2)c2c(Cl)nc(NCc3cccc(C(F)(F)F)c3)c(=O)n21)B1OC2CC3CC(C3(C)C)[C@@]2(C)O1 (stereo not given in full) | 2000 |  |
| C=CC[C@H](NC(=O)[C@@H]1C[C@@H](CCCc2ccc3ccccc3c2)c2c(Cl)nc(N)c(=O)n21)B1OC2CC3CC(C3(C)C)[C@@]2(C)O1 (stereo not given in full) | 190 |  |
| CC[C@H](NC(=O)[C@@H]1C[C@@H](CCCc2ccc3ccccc3c2)c2c(Cl)nc(NCc3cccc(C(F)(F)F)c3)c(=O)n21)B1OC2CC3CC(C3(C)C)[C@@]2(C)O1 (stereo not given in full) | 20 |  |
| C=CC[C@H](NC(=O)[C@@H]1C[C@@H](CCCc2ccc3ccccc3c2)c2c(Cl)nc(NCc3cccc(C(F)(F)F)c3)c(=O)n21)B1OC2CC3CC(C3(C)C)[C@@]2(C)O1 (stereo not given in full) | 20 |  |
| C=CC[C@H](NC(=O)[C@@H]1C[C@@H](CCCc2ccc3ccccc3c2)c2c(Cl)nc(NCCCC)c(=O)n21)B1OC2CC3CC(C3(C)C)[C@@]2(C)O1 (stereo not given in full) | 160 |  |
| C=CC[C@H](NC(=O)[C@@H]1C[C@@H](Cc2ccc(C)cc2)c2c(Cl)nc(NCc3cccc(C(F)(F)F)c3)c(=O)n21)B1OC2CC3CC(C3(C)C)[C@@]2(C)O1 (stereo not given in full) | 60 |  |
| C=CC[C@H](NC(=O)[C@@H]1C[C@@H](CCCc2ccccc2)c2c(Cl)nc(NCc3cccc(C(F)(F)F)c3)c(=O)n21)B1OC2CC3CC(C3(C)C)[C@@]2(C)O1 (stereo not given in full) | 60 |  |
| C=CC[C@H](NC(=O)[C@@H]1C[C@@H](Cc2cccc(OC)c2)c2c(Cl)nc(NCc3cccc(C(F)(F)F)c3)c(=O)n21)B1OC2CC3CC(C3(C)C)[C@@]2(C)O1 (stereo not given in full) | 260 |  |
| C=CC[C@H](NC(=O)[C@@H]1C[C@@H](CCCc2cccc3ccccc23)c2c(Cl)nc(NCC)c(=O)n21)B1OC2CC3CC(C3(C)C)[C@@]2(C)O1 (stereo not given in full) | 230 |  |
| C=CC[C@H](NC(=O)[C@@H]1CCCN1C(=O)[C@@H](NC(=O)[C@@H](NC(=O)[C@H](CCC(=O)O)NC(=O)[C@H](CC(=O)O)NC(C)=O)C(C)C)C(C)C)B1OC2CC3CC(C3(C)C)[C@@]2(C)O1 (stereo not given in full) (Ac-DEVVP-X1) |  | 4 |

Results, then the molecule that gave them:

| IC50 (NS3 [1]) [nM] | Ki (NS3 [2]) [nM] | Compound |
| --- | --- | --- |
| 260 |  | C=CC[C@H](NC(=O)[C@@H]1C[C@@H](Cc2ccccc2)c2c(Cl)nc(NCc3cccc(C(F)(F)F)c3)c(=O)n21)B1OC2CC3CC(C3(C)C)[C@@]2(C)O1 (stereo not given in full) |
| 240 |  | C=CC[C@H](NC(=O)[C@@H]1C[C@@H](CCCc2ccc3ccccc3c2)c2c(Cl)nc(NCc3ccccc3)c(=O)n21)B1OC2CC3CC(C3(C)C)[C@@]2(C)O1 (stereo not given in full) |
| 90 |  | C=CC[C@H](NC(=O)[C@@H]1C[C@@H](CCCc2ccc3ccccc3c2)c2c(Cl)nc(NCc3ccccn3)c(=O)n21)B1OC2CC3CC(C3(C)C)[C@@]2(C)O1 (stereo not given in full) |
| 400 |  | C=CC[C@H](NC(=O)[C@@H]1C[C@@H](Cc2cccc(C)c2)c2c(Cl)nc(NCc3cccc(C(F)(F)F)c3)c(=O)n21)B1OC2CC3CC(C3(C)C)[C@@]2(C)O1 (stereo not given in full) |
| 510 |  | C=CC[C@H](NC(=O)[C@@H]1C[C@H](CCCc2ccc3ccccc3c2)c2c(Cl)nc(NCc3cccc(C(F)(F)F)c3)c(=O)n21)B1OC2CC3CC(C3(C)C)[C@@]2(C)O1 (stereo not given in full) |
| 180 |  | C=CC[C@H](NC(=O)[C@@H]1C[C@@H](CCCc2cccc3ccccc23)c2c(Cl)nc(NCCC)c(=O)n21)B1OC2CC3CC(C3(C)C)[C@@]2(C)O1 (stereo not given in full) |
| 170 |  | C=CC[C@H](NC(=O)[C@@H]1C[C@@H](CCCc2cccc3ccccc23)c2c(Cl)nc(NCC(C)C)c(=O)n21)B1OC2CC3CC(C3(C)C)[C@@]2(C)O1 (stereo not given in full) |
| 60 |  | C=CC[C@H](NC(=O)[C@@H]1C[C@@H](CCCc2ccc3ccccc3c2)c2c(Cl)nc(NCc3cccc(OC)c3)c(=O)n21)B1OC2CC3CC(C3(C)C)[C@@]2(C)O1 (stereo not given in full) |
| 320 |  | C=CC[C@H](NC(=O)[C@@H]1C[C@@H](CCCc2ccc3ccccc3c2)c2c(Cl)nc(NC)c(=O)n21)B1OC2CC3CC(C3(C)C)[C@@]2(C)O1 (stereo not given in full) |
| 60 |  | C=CC[C@H](NC(=O)[C@@H]1C[C@@H](CCCc2cccc3ccccc23)c2c(Cl)nc(NCc3cccc(F)c3)c(=O)n21)B1OC2CC3CC(C3(C)C)[C@@]2(C)O1 (stereo not given in full) |
